Legend:
DENV-2 NGC = test: Antiviral activity against DENV-2 NGC in Vero-B cells (viral RNA load by RT-qPCR); format: cell-based, Dengue virus; conditions: Dengue virus, DENV2, Vero B, DENV-2 in Vero-B cells; inhibition of viral RNA replication by 50% (Table 3)
in vitro = conditions: African green monkey, uninfected quiescent Vero-B cells

Row | SMILES | EC50 (DENV-2 NGC) [nM] | CC50 at 4 days (in vitro) [µM]
1 | COc1cc(C)nc(NC(C(=O)c2c[nH]c3ccccc23)c2ccccc2)n1 (stereo not shown) [CPD-062] | 580 | > 134
2 | COc1cccc(NC(C(=O)c2c[nH]c3ccccc23)c2ccc(O)nc2)c1 (stereo not shown) [CPD-063] | 14300 | > 134
3 | COc1cc(NC(C(=O)c2c[nH]c3ccccc23)c2cn3ccccc3n2)ccn1 (stereo not shown) [CPD-064] | 8750 | 72
4 | NC(=O)c1cccc(NC(C(=O)c2c[nH]c3ccccc23)c2ccccc2)c1 (stereo not shown) [CPD-065] | 12100 | 90
5 | CCOC(=O)c1cccc(NC(C(=O)c2c[nH]c3ccccc23)c2ccccc2)c1 (stereo not shown) [CPD-068] | 1320 | 12
6 | COc1cc(NC(C(=O)c2c[nH]c3cc(Cl)ccc23)c2cn3ccccc3n2)ccn1 (stereo not shown) [CPD-069] | 2130 | 71
7 | O=C(O)c1cccc(NC(C(=O)c2c[nH]c3ccccc23)c2ccccc2)c1 (stereo not shown) [CPD-071] | 60800 | 135
8 | COc1cc(NC(C(=O)c2c[nH]c3ccccc23)c2ccccc2)ncn1 (stereo not shown) [CPD-072] | 6840 | 68
9 | COc1cc(NC(C(=O)c2c[nH]c3cc(Cl)ccc23)c2ccccc2)ccn1 (stereo not shown) [CPD-073] | 2350 | 76
10 | COc1cc(NC(C(=O)c2c[nH]c3ccccc23)c2cccnc2)ccn1 (stereo not shown) [CPD-074] | 810 | 77
11 | COc1cc(NC(C(=O)c2c[nH]c3cc(F)ccc23)c2ccccc2)ccn1 (stereo not shown) [CPD-075] | 1520 | 102
12 | COc1ccc2c(C(=O)C(Nc3ccnc(OC)c3)c3ccccc3)c[nH]c2c1 (stereo not shown) [CPD-076] | 3770 | 115
13 | COc1ccc2[nH]cc(C(=O)C(Nc3ccnc(OC)c3)c3ccccc3)c2c1 (stereo not shown) [CPD-078] | 11600 | 109
14 | COc1cccc(NC(C(=O)c2c[nH]c3ccccc23)c2cn3c(n2)COCC3)c1 (stereo not shown) [CPD-080] | 990 | > 124
15 | COc1cc(NC(C(=O)c2c[nH]c3ccccc23)c2cn3c(F)cccc3n2)ccn1 (stereo not shown) [CPD-081] | 10800 | 50
16 | COc1cc(NC(C(=O)c2c[nH]c3ccccc23)c2cscn2)ccn1 (stereo not shown) [CPD-082] | 61800 | 109
17 | COC(=O)c1ccc2c(C(=O)C(Nc3cccc(OC)c3)c3ccccc3)c[nH]c2c1 (stereo not shown) [CPD-085] | 70 | 16
18 | COc1cccc(NC(C(=O)c2c[nH]c3ccccc23)c2cn3cccc(C)c3n2)c1 (stereo not shown) [CPD-088] | 2530 | > 121
19 | COc1ccnc(NC(C(=O)c2c[nH]c3ccccc23)c2ccccc2)n1 (stereo not shown) [CPD-089] | 670 | > 139
20 | COc1cc(NC(C(=O)c2c[nH]c3ccccc23)c2ccc(F)cc2)ccn1 (stereo not shown) [CPD-090] | 2900 | 13
21 | COc1cc(NC(C(=O)c2c[nH]c3cc(C#N)ccc23)c2ccccc2)ccn1 (stereo not shown) [CPD-093] | 16800 | 87
22 | COc1cccc(NC(C(=O)c2c[nH]c3cc(C#N)ccc23)c2ccccc2)c1 (stereo not shown) [CPD-094] | 140 | 11
23 | COc1cccc(NC(C(=O)c2c[nH]c3ccccc23)c2cn3ccc(C)cc3n2)c1 (stereo not shown) [CPD-096] | 2900 | > 121
24 | COc1cc(NC(C(=O)c2c[nH]c3ccccc23)c2ccc3[nH]ccc3c2)ccn1 (stereo not shown) [CPD-097] | 2320 | 12
25 | COc1cccc(NC(C(=O)c2c[nH]c3ccccc23)c2cn3cc(C)ccc3n2)c1 (stereo not shown) [CPD-098] | 10700 | > 121
26 | COc1cc(NC(C(=O)c2c[nH]c3ccc(Cl)cc23)c2ccccc2)ccn1 (stereo not shown) [CPD-099] | 1760 | 12

Source: patent US12012411B2, “Viral replication inhibitors” (Katholieke Universiteit Leuven, priority 2011, dated 2024)
